Reference: US20260216348A1, “IRAK DEGRADATION AGENT AND USE THEREOF” (Increland, priority 2023, published 2026)

How the values were obtained:
Assay type in all cases: cell-based
[1] = test system: R848-induced IL-6 secretion in human peripheral blood mononuclear cells (PBMCs); test: Inhibition of R848-induced IL-6 secretion in human PBMCs (IL-6 ELISA); details: PBMC, R848 2.5 μg/mL, 20 h pre-incubation, 24 h stimulation
Method: This experiment was carried out in RPMI 1640 medium containing 10% FBS and 1% penicillin/streptomycin, with each of the compounds at an initial test concentration of 1 μM. The compound was dissolved in DMSO to prepare a stock solution, which was serially diluted into a series of working solutions with a 4-fold concentration gradient using the culture medium and then added to a 96-well plate at 10 μL per well. PBMCs (Batch No.: P122101102C; Milecell Biotechnology Inc.) were counted and diluted to a cell concentration of 1.25×10^6 cells/mL, and then added to the aforementioned compound-containing 96-well plate at 160 μL per well. The system was mixed well and incubated in a 5% CO2 incubator at 37° C. for 20 h. Then 10 μL of R848 (final concentration: 2.5 μg/mL) was added, and the culture was continued for 24 h in a 5% CO2 incubator at 37° C. After incubation, the 96-well plate was centrifuged at 2000 rpm for 4 min. The supernatant was collected and diluted 120-fold, then detected using an IL-6 ELISA kit. The OD450 values were read, and converted to IL-6 concentrations based on a standard curve.

[2] = test system: LPS/IL-1β-induced IL-6 secretion in human peripheral blood mononuclear cells (PBMCs); test: Inhibition of LPS/IL-1β-induced IL-6 secretion in human PBMCs (IL-6 ELISA); details: PBMC, LPS 10 ng/mL + IL-1β 20 ng/mL, 24 h pre-incubation, 20 h stimulation
Method: This experiment was carried out in RPMI 1640 medium containing 10% FBS and 1% penicillin/streptomycin, with each of the compounds at an initial test concentration of 1 μM.
The compound was dissolved in DMSO to prepare a stock solution, which was serially diluted into some working solutions with a 5-fold concentration gradient using the culture medium and then added to a 96-well plate at 10 μL per well. PBMCs (Batch No.: P122101102C; Milecell Biotechnology Inc.) were counted and diluted to a cell concentration of about 1.3×10^6 cells/mL, and then added to the aforementioned compound-containing 96-well plate at 150 μL per well. The system was mixed well and incubated in a 5% CO2 incubator at 37° C. for 24 h. Then 5 μL of LPS (final concentration: 10 ng/mL) and 5 μL of IL-1β (final concentration: 20 ng/mL) were added to each well, respectively, and the culture was continued for 20 h in a 5% CO2 incubator at 37° C. After incubation, the 96-well plate was centrifuged at 2000 rpm for 4 min. The supernatant was collected and diluted 200-fold, then detected using an IL-6 ELISA kit. The OD450 values were read, and converted to IL-6 concentrations based on a standard curve. The dose-response curves were fitted using GraphPad 8.0 to calculate the IC50 values.

IRAK4 = biological target: T1, IRAK4 (Homo sapiens, UniProt Q9NWZ3); test: IRAK4 protein degradation in THP1 cells (Western blot); details: THP-1 cells, 24 h
T1 construct: Effect of the Compounds on IRAK4 Protein Degradation in THP1 Cells; endogenous in cells; host or cells: THP-1 cells
T1 sequence (Q9NWZ3 1-460): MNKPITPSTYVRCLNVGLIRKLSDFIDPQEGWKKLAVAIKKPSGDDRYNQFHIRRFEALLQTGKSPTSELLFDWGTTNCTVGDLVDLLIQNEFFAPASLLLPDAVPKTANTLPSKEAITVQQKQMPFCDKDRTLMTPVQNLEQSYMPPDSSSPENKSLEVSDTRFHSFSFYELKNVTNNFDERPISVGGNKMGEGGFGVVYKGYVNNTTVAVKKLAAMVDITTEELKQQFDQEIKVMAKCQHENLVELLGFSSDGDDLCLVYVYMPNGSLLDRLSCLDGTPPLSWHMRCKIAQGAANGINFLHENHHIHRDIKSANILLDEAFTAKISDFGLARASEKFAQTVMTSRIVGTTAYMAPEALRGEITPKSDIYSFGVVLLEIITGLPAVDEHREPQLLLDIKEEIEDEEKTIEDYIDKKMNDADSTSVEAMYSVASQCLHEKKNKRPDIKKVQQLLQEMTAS
Method: THP-1 cells were seeded into a 96-well cell culture plate, with 2×10^5 cells and 90 μL of culture medium per well. The cell culture plate was cultured in an incubator with 5% CO2 at 37° C. overnight. The compound was dissolved in DMSO to prepare a stock solution, which was serially diluted into a series of working solutions with a 5-fold concentration gradient using the culture medium and then added to the aforementioned 96-well plate at 10 μL per well. The cell culture plate was further incubated for 24 h in a 5% CO2 incubator at 37° C. After incubation, the 96-well plate was centrifuged and the supernatant was discarded, followed by adding 40 μL of cell lysis buffer containing […]/phosphatase inhibitors to each well for sufficient lysis on an ice bath. Protein quantification was performed using the BCA protein quantification kit, followed by the preparation of Western blot samples. […] After electrophoresis, protein transfer was performed using a PVDF membrane under ice bath conditions for 1 h. After the transfer was completed, the PVDF membrane was blocked with gentle shaking in 5% skim milk at room temperature for 1 h. After blocking, the PVDF membrane was incubated with the primary antibody overnight with gentle shaking at 4° C. The PVDF membrane was washed 3 times with TBST, then the secondary antibody was added and incubated for 1 h with gentle shaking at room temperature, followed by washing of the PVDF membrane with TBST for 3 times. After the washes were completed, the chemiluminescent substrate was added; the PVDF membrane was scanned using a Clinx imager, semi-quantitative analysis was performed with ImageJ software, and the DC50 was calculated using GraphPad Prism 8.0.

SMILES	IC50 [1] [nM]	IC50 [2] [nM]	DC50 (IRAK4) [nM]
CN(C)c1cc2nn([C@@H]3CC[C@@H](CN4CC[C@@H](n5cc6c(F)cc(N7CCC(=O)NC7=O)cc6n5)C4)OC3)cc2cc1NC(=O)c1cnn2cccnc12 [TM-225]	12.3		
CN(C)c1cc2nn([C@H]3CC[C@H](CN4C[C@H](F)[C@@H](n5cc6c(F)cc(N7CCC(=O)NC7=O)cc6n5)C4)CC3)cc2cc1NC(=O)c1cnn2cccnc12 [TM-220]	8.1		
CN(C)c1cc2nn([C@H]3CC[C@H](CN4CC[C@@H](n5cc6c(F)cc(N7CCC(=O)NC7=O)cc6n5)C4)CC3)cc2cc1NC(=O)c1cnn2cccnc12 [TM-217]	8.59		
CN(C)c1cc2nn([C@H]3CC[C@H](CN4CC[C@H](n5cc6c(F)cc(N7CCC(=O)NC7=O)cc6n5)C4)CC3)cc2cc1NC(=O)c1cnn2cccnc12 [TM-216]	13.4		
CN(C)c1cc2nn([C@H]3CC[C@H](CN4CCC(c5nc6cc(C7CCC(=O)NC7=O)cc(F)c6o5)CC4)CC3)cc2cc1NC(=O)c1cnn2cccnc12 (stereo partly drawn) [TM-238]	4.18		
CN(C)c1cc2nn([C@H]3CC[C@H](CN4C[C@@H](F)[C@H](n5cc6c(F)cc(C7CCC(=O)NC7=O)cc6n5)C4)CC3)cc2cc1NC(=O)c1cnn2cccnc12 (stereo partly drawn) [TM-237]	25	16.5	
CN(C)c1nc2nc([C@H]3CC[C@H](CN4C[C@@H](n5cc6cc(N7CCC(=O)NC7=O)ccc6n5)[C@@H](F)C4)CC3)cn2cc1NC(=O)c1cnn2cccnc12 [TM-236]	22.4		
CN(C)c1cc2nn([C@H]3CC[C@H](CN4C[C@@H](F)[C@@H](n5cc6c(F)cc(N7CCC(=O)NC7=O)cc6n5)C4)CC3)cc2cc1NC(=O)c1cnn2cccnc12 [TM-219]	14.8		
CN(C)c1cc2nn([C@H]3CC[C@H](CN4C[C@H](F)[C@@H](n5cc6cc(F)c(N7CCC(=O)NC7=O)cc6n5)C4)CC3)cc2cc1NC(=O)c1cnn2cccnc12 [TM-223]	10.8		
CN(C)c1cc2nn([C@H]3CC[C@H](CN4C[C@@H](n5cc6c(F)cc(N7CCC(=O)NC7=O)cc6n5)[C@@H](F)C4)CC3)cc2cc1NC(=O)c1cnn2cccnc12 [TM-218]	15.6		
Cn1c(=O)n(C2CCC(=O)NC2=O)c2cccc(C#CCOC3CCN(C[C@H]4CC[C@H](n5cc(NC(=O)c6cnn7ccc(N8C[C@H]9C[C@@H]8CO9)nc67)c(C(F)F)n5)CC4)CC3)c21 (stereo partly drawn) [Positive compound, reference compound]	12.1	2.99	
CN(C)c1cc2nn([C@H]3CC[C@H](CN4CC[C@@H](n5cc6c(F)cc(C7CCC(=O)NC7=O)cc6n5)C4)CC3)cc2cc1NC(=O)c1cnn2cccnc12 (stereo partly drawn) [TM-235]	6.08		
CN(C)c1cc2nn([C@H]3CC[C@H](CN4C[C@H](F)[C@@H](n5cc6cc(N7CCC(=O)NC7=O)ccc6n5)C4)CC3)cc2cc1NC(=O)c1cnn2cccnc12 [TM-207]	10.3	40.9	
CN(C)c1cc2nn([C@H]3CC[C@H](CN4CC[C@H](c5nc6cc(N7CCC(=O)NC7=O)ccc6o5)C4)CC3)cc2cc1NC(=O)c1cnn2cccnc12 [TM-227]	13.8		
CN(C)c1cc2nn([C@H]3CC[C@H](CN4CC[C@@H](c5nc6cc(N7CCC(=O)NC7=O)ccc6o5)C4)CC3)cc2cc1NC(=O)c1cnn2cccnc12 [TM-226]	4.28		
CN(C)c1cc2nc([C@H]3CC[C@H](CN4CCC(n5cc6c(F)cc(N7CCC(=O)NC7=O)cc6n5)CC4)CC3)cn2nc1NC(=O)c1cnn2cccnc12 [TM-228]	14.7		
CN(C)c1cc2nn([C@@H]3CC[C@@H](CN4CC[C@H](n5cc6c(F)cc(N7CCC(=O)NC7=O)cc6n5)C4)OC3)cc2cc1NC(=O)c1cnn2cccnc12 [TM-224]	15.5		
O=C1CCC(c2ccc3cn([C@@H]4CCN(C[C@H]5CC[C@H](n6cc7cc(NC(=O)c8cnn9cccnc89)c(F)cc7n6)CC5)C4)nc3c2)C(=O)N1 (stereo partly drawn) [TM-222]	14		
CN(C)c1cc2nn([C@H]3CC[C@H](CN4C[C@@H](n5cc6cc(N7CCC(=O)NC7=O)c(F)cc6n5)[C@@H](F)C4)CC3)cc2cc1NC(=O)c1cnn2cccnc12 [TM-232]	18.9		
CN(C)c1cc2nn([C@H]3CC[C@H](CN4CC[C@@H](n5cc6cc(F)c(C7CCC(=O)NC7=O)cc6n5)[C@@H](F)C4)CC3)cc2cc1NC(=O)c1cnn2cccnc12 (stereo partly drawn) [TM-139]		4.35	< 1
CN(C)c1cc2nn([C@H]3CC[C@H](CN4CCN(c5nc6cc(C7CCC(=O)NC7=O)ccc6o5)CC4)CC3)cc2cc1NC(=O)c1cnn2cccnc12 (stereo partly drawn) [TM-106]		2.52	3.82
CN(C)c1cc2nn([C@H]3CC[C@H](CN4CCC5(CC4)C[C@@H](n4cc6cc(C7CCC(=O)NC7=O)c(F)cc6n4)CO5)CC3)cc2cc1NC(=O)c1cnn2cccnc12 (stereo partly drawn) [TM-141]		4.49	4.33
CN(C)c1cc2nn([C@H]3CC[C@H](CN4CC[C@@H](n5cc6cc(N7CCC(=O)NC7=O)c(F)cc6n5)[C@@H](F)C4)CC3)cc2cc1NC(=O)c1cnn2cccnc12 [TM-42]		1.65	0.93
CN(C)c1cc2nn([C@H]3CC[C@H](CN4CC[C@H](n5cc6ccc(N7CCC(=O)NC7=O)cc6n5)[C@H](F)C4)CC3)cc2cc1NC(=O)c1cnn2cccnc12 [TM-32]		1.21	1.4
CN(C)c1cc2nn([C@H]3CC[C@H](CN4CC[C@H](n5cc6cc(C7CCC(=O)NC7=O)ccc6n5)[C@H](F)C4)CC3)cc2cc1NC(=O)c1cnn2cccnc12 (stereo partly drawn) [TM-155]		1	0.31
CN(C)c1cc2nn([C@H]3CC[C@H](CN4CC[C@@H](n5cc6ccc(C7CCC(=O)NC7=O)cc6n5)[C@@H](F)C4)CC3)cc2cc1NC(=O)c1cnn2cccnc12 (stereo partly drawn) [TM-154]		1.45	1.27
CN(C)c1cc2nc([C@H]3CC[C@H](CN4C[C@@H](n5cc6cc(N7CCC(=O)NC7=O)ccc6n5)[C@@H](F)C4)CC3)cn2nc1NC(=O)c1cnn2cccnc12 [TM-229]	19.5		
CN(C)c1cc2nn([C@H]3CC[C@H](CN4CC5(CCN(c6nc7ccc(N8CCC(=O)NC8=O)cc7s6)CC5)C4)CC3)cc2cc1NC(=O)c1cnn2cccnc12 [TM-67]		4.01	19.9
CN(C)c1cc2nn([C@H]3CC[C@H](CN4CC[C@@H](n5cc6ccc(N7CCC(=O)NC7=O)cc6n5)[C@H](F)C4)CC3)cc2cc1NC(=O)c1cnn2cccnc12 [TM-30]		1.05	1.33
CN(C)c1cc2nn(C3CCC(CN4C[C@@H](F)[C@@H](n5cc6cc(N7CCC(=O)NC7=O)ccc6n5)C4)CC3)cc2cc1NC(=O)c1cnn2cccnc12 (stereo partly drawn) [TM-206]	5.49		
